This is an account of results in ChEMBL document CHEMBL4396937, “Synthesis of new triazole fused imidazo[2,1-b]thiazole hybrids with emphasis on Staphylococcus aureus virulence factors” (Bioorg Med Chem Lett, 2019).

In brackets after ≈: the same amount, converted by molar mass. Some results are limits rather than exact numbers.

Common to all, as to type: functional
The subject of experiment [1] is Bacillus subtilis. Nature of the experiment: Antibacterial activity against Bacillus subtilis MTCC 121 assessed as reduction in bacterial growth incubated for 24 hrs by agar well diffusion method. The following applies: MTCC 121, 24 h. Background: Agar diffusion results depend on both activity and mobility in agar.
The subject of experiment [2] is Staphylococcus aureus. The experiment is described as follows: Antibacterial activity against Staphylococcus aureus MLS-16 MTCC 2940 assessed as reduction in bacterial growth incubated for 24 hrs by agar well diffusion method. The following applies: MLS-16 MTCC 2940, 24 h.
Experiment [3] relates to Micrococcus luteus. The experiment is described as follows: Antibacterial activity against Micrococcus luteus MTCC 2470 assessed as reduction in bacterial growth incubated for 24 hrs by agar well diffusion method. The following applies: MTCC 2470, 24 h.
The test system of experiment [4] is Staphylococcus aureus. The experiment is described as follows: Antibacterial activity against Staphylococcus aureus MTCC 96 assessed as reduction in bacterial growth incubated for 24 hrs by agar well diffusion method. The note with it: MTCC 96, 24 h.
Experiment [5] deals with Escherichia coli. Nature of the experiment: Antibacterial activity against Escherichia coli MTCC 739 assessed as reduction in bacterial growth incubated for 24 hrs by agar well diffusion method. The note with it: MTCC 739, 24 h.
For experiment [6], the system named is Pseudomonas aeruginosa. The experiment is described as follows: Antibacterial activity against Pseudomonas aeruginosa MTCC 2453 assessed as reduction in bacterial growth incubated for 24 hrs by agar well diffusion method. The note with it: MTCC 2453, 24 h.
In experiment [7] the test system is Raoultella planticola. The experiment is described as follows: Antibacterial activity against Klebsiella planticola MTCC 530 assessed as reduction in bacterial growth incubated for 24 hrs by agar well diffusion method. The following applies: MTCC 530, 24 h.
Experiment [8] has as its system Candida albicans. The experiment is described as follows: Antifungal activity against Candida albicans MTCC 3017 assessed as reduction in fungal growth incubated for 24 hrs by agar well diffusion method. The following applies: MTCC 3017, 24 h.
In experiment [9] the test system is Bacillus subtilis. Nature of the experiment: Bactericidal activity against Bacillus subtilis MTCC 121 assessed as reduction in bacterial survival incubated for 24 hrs followed by transfer of microbial suspension to agar plates and measured at 24 hrs post transfer by agar well diffusion method. The following applies: MTCC 121, 24 h.
Experiment [10] concerns Staphylococcus aureus. The experiment is described as follows: Bactericidal activity against Staphylococcus aureus MLS-16 MTCC 2940 assessed as reduction in bacterial survival incubated for 24 hrs followed by transfer of microbial suspension to agar plates and measured at 24 hrs post transfer by agar well diffusion method. The following applies: MLS-16 MTCC 2940, 24 h.
Experiment [11] has as its system Micrococcus luteus. The experiment is described as follows: Bactericidal activity against Micrococcus luteus MTCC 2470 assessed as reduction in bacterial survival incubated for 24 hrs followed by transfer of microbial suspension to agar plates and measured at 24 hrs post transfer by agar well diffusion method. The following applies: MTCC 2470, 24 h.
Experiment [12] relates to Staphylococcus aureus. The experiment is described as follows: Bactericidal activity against Staphylococcus aureus MTCC 96 assessed as reduction in bacterial survival incubated for 24 hrs followed by transfer of microbial suspension to agar plates and measured at 24 hrs post transfer by agar well diffusion method. The note with it: MTCC 96, 24 h.
Experiment [13] deals with Escherichia coli. The experiment is described as follows: Bactericidal activity against Escherichia coli MTCC 739 assessed as reduction in bacterial survival incubated for 24 hrs followed by transfer of microbial suspension to agar plates and measured at 24 hrs post transfer by agar well diffusion method. The following applies: MTCC 739, 24 h.
Experiment [14] concerns Pseudomonas aeruginosa. The experiment is described as follows: Bactericidal activity against Pseudomonas aeruginosa MTCC 2453 assessed as reduction in bacterial survival incubated for 24 hrs followed by transfer of microbial suspension to agar plates and measured at 24 hrs post transfer by agar well diffusion method. The note with it: MTCC 2453, 24 h.
Experiment [15] deals with Raoultella planticola. Nature of the experiment: Bactericidal activity against Klebsiella planticola MTCC 530 assessed as reduction in bacterial survival incubated for 24 hrs followed by transfer of microbial suspension to agar plates and measured at 24 hrs post transfer by agar well diffusion method. The note with it: MTCC 530, 24 h.
The subject of experiment [16] is Candida albicans. The experiment is described as follows: Fungicidal activity against Candida albicans MTCC 3017 assessed as reduction in fungal survival incubated for 24 hrs followed by transfer of microbial suspension to agar plates and measured at 24 hrs post transfer by agar well diffusion method. The following applies: MTCC 3017, 24 h.

Usually MIC stands for the lowest concentration found to suppress growth. In general, MBC refers to the smallest concentration meeting the test's criterion for killing. A word on the MFC: it is the lowest tested concentration that kills the fungus rather than only halting it. On to `O=C(c1cn(-c2ccc(F)cc2)nn1)c1c(-c2ccc(Cl)cc2)nc2sccn12`, for which the MIC was 3.9 µg/mL (≈ 9.2 µM) in [1]; 7.8 µg/mL (≈ 18.4 µM) in experiment [2]; 3.9 µg/mL (≈ 9.2 µM) in experiment [3]; 3.9 µg/mL (≈ 9.2 µM) in experiment [4]; more than 125 µg/mL in experiment [5]; more than 125 µg/mL in [6]. Besides, the results for the MIC in [7] and in experiment [8] were 7.8 µg/mL (≈ 18.4 µM) and 15.6 µg/mL (≈ 36.8 µM), respectively. Besides, the MBC in experiment [9] was 7.8 µg/mL (≈ 18.4 µM); in [10], 15.6 µg/mL (≈ 36.8 µM); in experiment [11], 7.8 µg/mL (≈ 18.4 µM); in [12], 7.8 µg/mL (≈ 18.4 µM); in experiment [13] it was more than 125 µg/mL; in [14], more than 125 µg/mL. Moreover, the MBC in experiment [15] came to 15.6 µg/mL (≈ 36.8 µM). In addition, the MFC in experiment [16] was more than 125 µg/mL.
On to `O=C(c1cn(-c2ccc(C(F)(F)F)cc2)nn1)c1c(-c2ccc(Cl)cc2)nc2sccn12`, for which the MIC in [1] is 15.6 µg/mL (≈ 32.9 µM); in experiment [2] it was more than 125 µg/mL; in experiment [3], more than 125 µg/mL; in experiment [4], more than 125 µg/mL; in experiment [5], more than 125 µg/mL; in [6], more than 125 µg/mL. The MIC in experiment [7] was more than 125 µg/mL; in [8], 15.6 µg/mL (≈ 32.9 µM). Besides, the MBC in experiment [9] was 31.2 µg/mL (≈ 65.8 µM); in [10], more than 125 µg/mL; in [11] it was more than 125 µg/mL; in experiment [12] it was more than 125 µg/mL; in experiment [13] it was more than 125 µg/mL; in experiment [14], more than 125 µg/mL. In experiment [15], the MBC was more than 125 µg/mL. Besides, the minimal fungicidal concentration (MFC) in [16] came to 15.6 µg/mL (≈ 32.9 µM).
`COc1ccc(-c2nc3sccn3c2C(=O)c2cn(-c3ccc(OC)cc3)nn2)cc1`: the MIC in experiment [1] is 7.8 µg/mL (≈ 18.1 µM); in [2] it was 7.8 µg/mL (≈ 18.1 µM); in experiment [3], 15.6 µg/mL (≈ 36.2 µM); in experiment [4] it was 15.6 µg/mL (≈ 36.2 µM); in experiment [5], more than 125 µg/mL; in [6] it was more than 125 µg/mL. Further, the MIC in experiment [7] turned out to be 7.8 µg/mL (≈ 18.1 µM); in experiment [8], 15.6 µg/mL (≈ 36.2 µM). For the same molecule, the MBC in [9] is 15.6 µg/mL (≈ 36.2 µM); in [10], 15.6 µg/mL (≈ 36.2 µM); in experiment [11], 31.2 µg/mL (≈ 72.3 µM); in experiment [12] it was 31.2 µg/mL (≈ 72.3 µM); in experiment [13] it was more than 125 µg/mL; in experiment [14], more than 125 µg/mL. Besides, in experiment [15], the MBC was determined as 15.6 µg/mL (≈ 36.2 µM). The MFC in experiment [16] worked out at 31.2 µg/mL (≈ 72.3 µM).
In the case of `COc1ccc(-n2cc(C(=O)c3c(-c4ccccc4)nc4sccn34)nn2)cc1`, the MIC in [1] is 3.9 µg/mL (≈ 9.71 µM); in experiment [2], 7.8 µg/mL (≈ 19.4 µM); in experiment [3], 3.9 µg/mL (≈ 9.71 µM); in [4] it was 7.8 µg/mL (≈ 19.4 µM); in [5] it was more than 125 µg/mL; in [6], more than 125 µg/mL. For the same molecule, the minimum inhibitory concentration (MIC) in experiment [7] and in [8] was 15.6 µg/mL (≈ 38.9 µM) each time. Also, the minimum bactericidal concentration (MBC) in experiment [9] is 7.8 µg/mL (≈ 19.4 µM); in [10], 15.6 µg/mL (≈ 38.9 µM); in [11], 7.8 µg/mL (≈ 19.4 µM); in [12], 15.6 µg/mL (≈ 38.9 µM); in experiment [13], more than 125 µg/mL; in [14], more than 125 µg/mL. Besides, the minimum bactericidal concentration (MBC) in experiment [15] stood at 31.2 µg/mL (≈ 77.7 µM). Besides, the MFC in experiment [16] is 31.2 µg/mL (≈ 77.7 µM).
With `COc1ccc(-c2nc3sccn3c2C(=O)c2cn(-c3ccc(C(F)(F)F)cc3)nn2)cc1`, the MIC in experiment [1] was 15.6 µg/mL (≈ 33.2 µM); in [2], 15.6 µg/mL (≈ 33.2 µM); in experiment [3], 7.8 µg/mL (≈ 16.6 µM); in experiment [4] it was 15.6 µg/mL (≈ 33.2 µM); in experiment [5], more than 125 µg/mL; in [6], more than 125 µg/mL. Also, the MIC was more than 125 µg/mL in experiment [7] and 7.8 µg/mL (≈ 16.6 µM) in experiment [8]. For the same molecule, the MBC in experiment [9] is 31.2 µg/mL (≈ 66.5 µM); in experiment [10], 31.2 µg/mL (≈ 66.5 µM); in [11], 15.6 µg/mL (≈ 33.2 µM); in experiment [12], 31.2 µg/mL (≈ 66.5 µM); in [13], more than 125 µg/mL; in experiment [14], more than 125 µg/mL. Besides, in experiment [15], the MBC is more than 125 µg/mL. The MFC in experiment [16] was determined as 15.6 µg/mL (≈ 33.2 µM).
